From PMC12040169 (PLOS Biology, 2025) come the findings set out here.

The data set can be described thus: in vitro. Particulars: human, hela cells, % viability.
As usually defined, the viability is a read-out of living cells in per cent, often relative to untreated cells. In the case of `O=C(c1cc(F)c(F)cc1F)N1CCC2(CCCN(Cc3ccc(Cl)c(Cl)c3)C2)C1` (stereo not drawn) [CBK131990], the viability at 28.5 h, 10 µM was 95.1%. `Nc1nnc(SCC(=O)NCc2ccc3c(c2)OCO3)s1` [CBK267853]: the viability at 28.5 h, 10 µM turned out to be 101%. Consider `CNC(=O)c1ccc(-c2cc(OC)c(OC)c(OC)c2)nc1NCC1CC1` [CBK106312], for which the viability at 28.5 h, 10 µM worked out at 101%. In the case of `Cn1nc(CN2CCNC(=O)C2c2ccccc2C(F)(F)F)[nH]c1=O` (stereo not drawn) [CBK306269], the viability at 28.5 h, 10 µM was determined as 91.3%. For `Cc1cccc(NC(=O)COc2ccccc2CNc2ccc(Br)cc2)c1` [CBK266534], the viability at 28.5 h, 10 µM is 101%.

Turning to `COc1ccc(OC)c(NC(=O)c2c(NCc3ccncc3)sc3c2CCC3)c1` [CBK266007], the viability at 28.5 h, 10 µM turned out to be 90.1%.

`CN1CCN(c2ccnc3cc(Cl)ccc23)CC1` [CBK066867C]: the viability at 28.5 h, 10 µM is 86%.

For the molecule `COc1ccc(/C=C(\C)C(=O)NCc2ccc(OC3CCNCC3)cc2)cc1OC` [CBK038914T], the viability at 28.5 h, 10 µM was determined as 90.9%. As for `O=C(N/N=C/c1ccc(OC(=O)c2ccc([N+](=O)[O-])cc2)cc1)c1cccnc1` [CBK262146], the figure is 101%; as for `CN(C)CCCOc1ccc2c(c1)Sc1ccccc1CC2=O` [CBK058002], 95.4%; as for `CC1CCN(C(=O)CCn2c(C(F)F)cc3cccnc32)CC1` [CBK284982], 85.6%. As for `Cc1ccc(NS(=O)(=O)N(C)C)c(C)c1` [CBK005246], the figure is 122%.

In the case of `O=C(NCc1nc2ccccc2[nH]1)c1cc(-c2ccc(Cl)cc2)cnc1NCc1ccc2c(c1)OCO2` [CBK106377], the viability at 28.5 h, 10 µM was found to be 102%.

Turning to `O=S(=O)(O)CCCSCCCS(=O)(=O)O` [CBK278307N], the viability at 28.5 h, 10 µM was 95.4%. For `CNc1ccc(OC(=O)c2ccco2)cc1` [CBK010779], the viability at 28.5 h, 10 µM came out at 88.1%.

As for `COCC(=O)N1CCc2sccc2C1c1ccc(NC(=O)c2cccc(F)c2)cc1` (stereo not drawn) [CBK286468], the viability at 28.5 h, 10 µM was 102%. With `CS(=O)(=O)N1CCCCCC1c1cc(-c2cccs2)on1` (stereo not drawn) [CBK284670], the viability at 28.5 h, 10 µM came to 85.5%. With `Cc1ccc2c(c1)c(=O)cc(C(F)(F)F)n2CCNC(=O)C1CC1` [CBK284831], the viability at 28.5 h, 10 µM came out at 93.1%. As for `Cc1onc(-c2ccccc2)c1C(=O)N1CCC1` [CBK160450], the viability at 28.5 h, 10 µM amounted to 90.6%. With `O=C(NC(Cc1ccsc1)c1cccnc1)C1CCOCC1` (stereo not drawn) [CBK285110] the figure was 92.9%; with `O=C(CN1C(=O)c2ccncc2C1=O)Nc1ccccn1` [CBK288624], 89.9%; with `CCOC(=O)N1CCC(NS(=O)(=O)c2ccc(OC)c(OC)c2)CC1` [CBK045464], 104%. As for `Cn1cc(C(=O)OCc2cccc(S(=O)(=O)N3CCOCC3)c2)cn1` [CBK305721], the figure is 88.1%; as for `CN(Cc1ccccc1N1CCOCC1)C(=O)Cc1cn2ccsc2n1` [CBK305830], 109%. For the molecule `Sc1nccn1Cc1cccs1` [CBK008454], the viability at 28.5 h, 10 µM was determined as 92%. With `CC(C)Nc1ncnc2scc(-c3cccs3)c12` [CBK017085], the viability at 28.5 h, 10 µM stood at 85.9%. With `N=C1NC(=O)/C(=C/c2ccc(OS(=O)(=O)c3ccc4ccccc4c3)cc2)S1` [CBK263605] the figure was 106%. Consider `CCN(CCC(C)c1ccccc1)CCN(C)C` (stereo not drawn) [CBK261914], for which the viability at 28.5 h, 10 µM turned out to be 94.6%. With `CCN1C(=O)COC[C@@H]1[C@H](O)c1ccc(NC(=O)C2CCC2)cc1` [CBK289686], the viability at 28.5 h, 10 µM was 85.7%.

Turning to `N#Cc1sc(NC(=O)c2cccc(Br)c2)nc1Cl` [CBK017468], the viability at 28.5 h, 10 µM was found to be 45.4%. Take `CCOC(=O)CCNC(C)C1COc2ccccc2O1` (stereo not drawn) [CBK074284G]: the viability at 28.5 h, 10 µM is 101%. As for `Cc1cc(NC(=O)N2CCN(c3ncccc3C#N)CC2)no1` [CBK305901], the figure is 80.5%; as for `COc1ccc(CN2CCCN(c3cc(OC4CCCCC4)ncn3)CC2)cc1` [CBK083278T], 107%.
